# Experimental data from patent US7807654B2, “Compositions and methods for treatment of mitochondrial diseases” (Wellstat Therapeutics Corporation, priority 1998, dated 2010).
# Key:
# [1] = tested on: 3NP treated mice; test: 3-nitropropionic acid (3NP) model of Huntington's disease; assay type: in vivo, Swiss mice
# Protocol: Male 6-8 month old Swiss mice (National Cancer Institute; NCI, Frederick, Md.) were treated with 3NP (65 mg/kg i.p.) daily for 4 days to induce mortality, neuronal cell loss and behavioral impairment with n=8/group. […] On day 9, the mice were perfuse fixed with 10% buffered formalin and processed for silver staining to detect neuronal damage. […] There was no mortality in the 3NP+TAU group, but 3 of 8 mice died in the vehicle+3NP group.
# Behavioral scoring of the 3NP treated mice was to determine whether there was any motor impairment at anytime during the study. There were 88% of the control+3NP treated mice with behavioral impairment indicated by gross observation. A decreased incidence of impairment of only 50% was found in the TAU+3NP treated mice.
# The silver staining was analyzed by a pathologist blinded to the identity of tissue samples. […] However, in the control+3NP treated mice, silver staining of synaptic terminals in the striatal area (caudate/putamen area) and substantia nigra was pronounced. Silver impregnation of axons and/or synaptic terminals in the thalamus, deep mesencephalon and/or reticular formation (medulla) was also found in […] of the control+3NP treated mice. The substantia nigra projects to the striatum and these areas are especially vulnerable to damage by 3NP. The damage to the substantia nigra and striatum was prevented by TAU.
# [2] = tested on: 3NP treated mice; test: 3-nitropropionic acid (3NP) model of epilepsy; assay type: in vivo, CD-1 mice
# From the text: 3-nitropropionic acid (3NP) is a mitochondrial toxin that acts by inhibiting Complex II of the respiratory chain; it is used to induce brain lesions similar to those characteristic of Huntington's disease. Seizures can also be induced by the use of 3NP as a model of epilepsy and mitochondrial dysfunction. Urbanska et al., Eur J Pharmacol, 359: 55-8 (1998). Male CD-1 mice (National Cancer Institute, NCI, Frederick. Md.) weighing between […] were used throughout. Mice were divided into groups of 5 and animals for each group were randomly chosen from different cages to avoid possible influence of age. The mice were maintained on a 12 hr light dark cycle with free access to water and food. All experiments were performed during the light period between 9:00 and 16:00 hr. Mice (n=17-20) were given 160 mg/kg 3NP and followed for seizures. 3NP was made up at 16 mg or 18 mg/ml in sterile water (pH: 7.4). 3NP was administered i.p. in a volume of 0.1 m/10 g body weight. […] Seizures were assessed similar to the methods previously described (Roberts & Keith, J Pharmacol Exp Ther, 270:505-11, 1994; Urbanska et al., Eur J Pharmacol, 359:55-8, 1998).
# Behavioral observations were performed within 120 min following application of 3-NP. Three major categories of convulsive seizure response were been considered and recorded: • 1. Clonic movements: the movements of the forelimbs accompanied by facial twitching; • 2. Explosive clonic movements: the movement of all four limbs involving running, jumping and bouncing; • 3. Tonic response: including tonic flexion and tonic extension of the all four limbs.
# Mortality rate was evaluated at 120 min after 3NP injection.
# [3] = tested on: MPTP treated mice; test: MPTP model of Parkinson's disease, second study; assay type: in vivo, C57/BL6 mice; details: MPTP b.i.d. for 2 days, sacrificed on day 9, mean ± SEM
# Protocol: A second study using MPTP (25 mg/kg i.p. b.i.d. for 2 days) was performed. […] TAU or vehicle was given orally (dose of TAU=4 g/kg bw b.i.d.) starting the day before MPTP administration and ending on day 8. Mice were sacrificed on day 9.
# [4] = tested on: MPTP treated mice; test: MPTP model of Parkinson's disease, first study
# [5] = target: cytochrome oxidase (Complex IV) (Homo sapiens, UniProt P00395); details: Brown G C, Mol. Cell. Biochem. 174:189-192, 1997; cited from earlier work
# [6] = tested on: mice given intrastriatal QA; test: Quinolinic acid (QA) model of excitotoxicity; assay type: in vivo, Swiss mice; details: TAU 4 g/kg bw p.o. b.i.d.
# [7] = tested on: taxol-treated mice; test: Taxol-induced neuropathy, tail-flick latency; assay type: in vivo; details: nine days after initiation of taxol 21.6 mg/kg/day i.p. for 6 days; oral triacetyluridine 4000 mg/kg b.i.d.
# Protocol: Two groups of 10 mice each were treated with taxol, 21.6 mg/kg/day for 6 consecutive days by intraperitoneal injection. An additional group of 10 mice received injections of vehicle alone. One of the groups of taxol-treated mice received oral triacetyluridine, 4000 mg/kg b.i.d. Nine days after the initiation of taxol treatments, nociceptive sensory deficits were tested by determining tail-flick latency after exposure of the tip of the tail to focused thermal radiation with an infrared heat lamp. In this system, delays in the tail-flick response to radiant heat correlate with sensory nerve deficits.
# [8] = tested on: Normal human neural progenitor (NHNP) cells; test: Survival of differentiated NHNP cells without glucose and with azide (LDH/MTT); assay type: cell-based; details: no glucose, sodium azide 0, 2, 4 and 8 mM, 20 hours (FIG. 16)
# Protocol: NHNP cells derived from fetal brain were obtained from Clonetics (Walkersville, Md.; cat# CC-2598). The NHNP cells can be differentiated into neurons, glial cells, endothelial cells or microglial cells. […] Rockville, Md.) and hLIF (R&D System, Cat. 250-L-050. […] NHNP cells, passage 3-14 were plate in 96 well plates at 10 k cells/well and differentiated for 10 days. On the day of the experiment, cells were washed with DMEM without glucose, then incubated 20 hours in 100 μl of DMEM, no glucose and dialyzed 1% FBS (Life Technology Cat. 26300-061). […] Cell survival was assessed by the ratio of extracellular lactate dehydrogenase (LDH)/intracellular total dehydrogenase activity (MTT assay). Each condition was assayed in triplicate or quadruplicate. […] Extracellular LDH was assayed with 50 μl of supernatant using the Cytotoxicity Assay Kit (CytoTox 96 Non-Radioactive Cytotoxicity Assay; Promega, Cat. G1780. Madison, Wis.) according to kit instructions and read OD at 490 nm. After removing medium from the NHNP cells, 100 μl of assay medium (DMEM, no glucose and dialyzed 1% FBS) was added back to the cells. MTT was assayed in cells according to the kit instructions using Cell Proliferation Assay Kit (Promega, Cat. G4100. Madison, Wis.). Dye solution (15 μl) was added to each well and incubated 4 hours at 37° C. […] OD was read at 570 nm.
# [9] = tested on: 3NP treated mice; test: 3NP model with TAU, creatine or coenzyme Q10: mortality and body weight; assay type: in vivo, CD-1 mice; details: for mortality due to 3NP treatment: experiments 1 and 2 (FIGS. 1 and 2), 6% TAU, 2% creatine, coenzyme Q10 200 mg/kg chow
# Protocol: (§1) Retired male CD-1 mice, 7-9 months of age, (Strain: Cr:NIH (S); Source: NCI) weighing 30-40 g were housed singly throughout the study. The animals were kept on a 12-hour light/dark cycle, with food and water continuously available. The animals were acclimated to our facility for seven days before experimentation. The mice were randomly assigned treatment groups.
# The mice were given 3NP at a dose of 40, 40, 50, 50, 60 and 60 mg/kg i.p. on days 1-6 and 50 mg/kg i.p. on days 5-12.
# (§2) The mice were given 3NP at a dose of 40, 40, 50, 50, 60 and 60 mg/kg i.p. on days 1-6 and 50 mg/kg i.p. on days […] was made up at 4, 5 or 6.0 mg/ml in sterile water (pH to 7.4 with 1.0 NaOH) and 0.1 ml/10 g BW was given (i.p) to each mouse at 3-4 PM.
# The dosing of TAU (Nagase & Co., Ltd., Chemicals Second Division, 5-1, Nihonbashi-Kobunacho, Chuo-Ku, Tokyo 103, Japan; Lot 103 H 0060) was mixed into the rodent chow at 6% weight/weight. Creatine (Sigma) was mixed into the chow at 2% (weight/weight) that is previously reported to be the optimal dose (Matthews, Yang et al. 1998). Coenzyme Q10 (Sigma) was also provided in the chow at a dose 200 mg/kg chow) previously shown to be effective (Matthews, Yang et al. 1998).
# • n=9-12/group • Vehicle+Vehicle • Vehicle+3NP • TAU+3NP • Creatine+3NP • TAU and Creatine+Vehicle
# • (n=8-10/group) • Vehicle+Vehicle • Vehicle+3NP • TAU+3NP • Coenzyme Q10+3NP • TAU and Coenzyme Q10+Vehicle
# • (n=8-10/group) • Vehicle+Vehicle • Vehicle+3NP • 8% TAU+Vehicle • 2% TAU+3NP • 4% TAU+3NP • 8% TAU+3NP
# Data were analyzed by one- or two-way ANOVA followed by comparison of treatments by the Tukey test. Data are represented as mean±SEM.
# [10] = tested on: 3NP treated mice; test: 3NP model with TAU, creatine or coenzyme Q10: locomotor activity; assay type: in vivo, CD-1 mice
# Protocol: as §1, §2
# The dosing of TAU (Nagase & Co., Ltd., Chemicals Second Division, 5-1, Nihonbashi-Kobunacho, Chuo-Ku, Tokyo 103, Japan; Lot 103 H 0060) was mixed into the rodent chow at 6% weight/weight. Creatine (Sigma) was mixed into the chow at 2% (weight/weight) that is previously reported to be the optimal dose (Matthews, Yang et al. 1998). […]
# The Photobeam Activity System (San Diego Instruments, San Diego, Calif.) was used to measure spontaneous activity. […] Spontaneous activity was quantified by placing mice in the Photobeam Activity System for a period of 30 min. […]
# (§3) Data were analyzed by one- or two-way ANOVA followed by comparison of treatments by the Tukey test. […]
# [11] = tested on: 3NP treated mice; test: 3NP model with TAU, creatine or coenzyme Q10: rotarod; assay type: in vivo, CD-1 mice
# Protocol: as §1, §2
# The dosing of TAU (Nagase & Co., Ltd., Chemicals Second Division, 5-1, Nihonbashi-Kobunacho, Chuo-Ku, Tokyo 103, Japan; Lot 103 H 0060) was mixed into the rodent chow at 6% weight/weight. Creatine (Sigma) was mixed into the chow at 2% (weight/weight) that is previously reported to be the optimal dose (Matthews, Yang et al. 1998). Coenzyme Q10 (Sigma) was also provided in the chow at a dose 200 mg/kg chow) previously shown to be effective (Matthews, Yang et al. 1998). […]
# The Rotarod apparatus (San Diego Instruments, San Diego, Calif.) was used to measure fore- and hindlimb motor coordination and balance. […] The latency to fall off the rotarod within this time period was recorded. […]
# as §3
# [12] = 160 mg/kg 3NP i.p., TAU 4 g/kg p.o. 2 hours prior, within 120 min
smiles,measurement,setting,value
"O=C(O)CC[N+](=O)[O-] [3NP, 3-nitropropionic acid]",mortality due to 3NP,"[1]; 3NP 65 mg/kg i.p. daily for 4 days, TAU 4 g/kg bw p.o. b.i.d., n=8/group",3 of 8
same,mice with behavioral (motor) impairment by gross observation,[1]; at anytime during the study,88%
same,"mice with silver impregnation of axons and/or synaptic terminals in thalamus, deep mesencephalon and/or reticular formation",[1]; day 9,80%
same,"neuronal damage by silver staining (striatal area, substantia nigra)","[1]; day 9, blinded pathologist",pronounced
same,Latency to clonic seizure,"[2]; 160 mg/kg 3NP i.p., TAU 4 g/kg p.o. 2 hours prior, mean ± SEM",23.8 ± 0.7 min
same,% Clonic seizures,[2]; [12],90.0%
same,% Running seizures,[2]; [12],42.9%
same,% Mortality,[2]; at 120 min after 3NP injection,35%
"CN1CC=C(c2ccccc2)CC1 [MPTP, 1-methyl-4-phenyl-1,2,3,6-tetrahydropyridine]","Striatal DA, MPTP-treated mice",[3],15.9 ± 2.2 ng DA/mg protein
same,mortality,"[4]; MPTP 30 mg/kg i.p. b.i.d. for 1.5 days, TAU 4 g/kg p.o. b.i.d.",71.4%
same,"Striatal DA, MPTP-treated mice","[4]; first study, eight days after stopping MPTP, mean ± SEM",9.2 ± 2.2 ng DA/mg protein
[N]=O [Nitric oxide],concentration that inhibits cytochrome oxidase / mitochondrial respiration,[5],~1 µM
"O=C(O)c1cccnc1C(=O)O [QA, Quinolinic acid]",percent of mice surviving the 7 days,[6]; 50 nmoles QA bilaterally in striatum,64%
same,percent of mice surviving the 7 days,[6]; 100 nmoles QA bilaterally in striatum,4%
"CC(=O)O[C@H]1C(=O)[C@@]2(C)[C@H]([C@H](OC(=O)c3ccccc3)[C@]3(O)C[C@H](OC(=O)[C@H](O)[C@@H](NC(=O)c4ccccc4)c4ccccc4)C(C)=C1C3(C)C)[C@]1(OC(C)=O)CO[C@@H]1C[C@@H]2O [Taxol, taxol]",Tail flick latency,[7],16.0 ± 3.1 s
"O=c1ccn([C@@H]2O[C@H](CO)[C@@H](O)[C@H]2O)c(=O)[nH]1 [Uridine, uridine]",uridine concentration required for robust protection of cells,[8],≥ 50 µM
COC1=C(OC)C(=O)C(C/C=C(\C)CC/C=C(\C)CC/C=C(\C)CC/C=C(\C)CC/C=C(\C)CC/C=C(\C)CC/C=C(\C)CC/C=C(\C)CC/C=C(\C)CCC=C(C)C)=C(C)C1=O [coenzyme Q10],loss in body weight due to 3NP,[9]; experiment 2 (FIG. 5),attenuated
same,mortality due to 3NP treatment,[9],decreased mortality
same,decrease in activity due 3NP treatment,[10]; experiment 2 (FIG. 8),attenuated
same,impairment in rotarod performance at 10 RPM due 3NP treatment,[11]; experiment 2 (FIG. 11),attenuated
CN(CC(=O)O)C(=N)N [creatine],mortality due to 3NP treatment,[9],not
same,decrease in activity due 3NP treatment,[10]; experiment 1 (FIG. 7),not attenuated
same,impairment of rotarod performance at 5 RPM due to 3NP,[11]; experiment 1 (FIG. 10),significantly (p<0.01)
